B1: VSD2-NavAb chimeric channel (hNav1.7 VSD2 sequences fused to a NavAb scaffold) (other)
chain: MYLRITNIVESSFFTKFIIYLIVLNTLFMAMEHHPMTEEFKNVLAIGNLVFTGIFAIEIILRIYVHRISFFKDPWSLFDSLIVTLSLVELFLADVEGLSVLRSFRLLRVFRLVTAVPQMRKIVSALISVIPGMLSVIALMTLFFYIFAIMATQLFGERFPEWFGTLGESFYTLFQVMTLESWSMGIVRPLMEVYPYAWVFFIPFIFVVTFVMINLVVAICVDAMAILNQKEEQHIIDEVQSHEDNINNEIIKLREEIVELKELIKTSLKN
notes: not shown: FLAG, N-terminal, kept

From publication PMC7083225 (Cell Chemical Biology, 2020) come the findings set out here.

The first data set deals with the molecule itself. Put plainly: SEC; size-exclusion chromatography after anti-FLAG affinity purification, in GDN detergent.
Conditions: not given
A general note: SEC sorts molecules by how far they enter the pores of the column.
B1: the binding result is given as “binds”.

The target of another data set is human Nav1.7 (Homo sapiens, UniProt Q15858). Put plainly: Automated patch-clamp electrophysiology, CHO cells expressing Nav1.7. It is filed as cell-based. To be noted: SyncroPatch 768PE automated patch clamp; CHO stable cell line expressing human Nav1.7; holding -120 mV, 10 ms pulse to -10 mV every 2 s; 25 min compound; four-parameter Hill fit, each point n = 3-20; read-out: IC50 (nM), Nav1.7 inhibition. On the procedure: The obtained photoprobes were evaluated in a patch-clamp assay using CHO cells expressing Nav1.7 (Figure 1D).
Sequence of human Nav1.7 (Q15858 1-1977 isoform Q15858-4): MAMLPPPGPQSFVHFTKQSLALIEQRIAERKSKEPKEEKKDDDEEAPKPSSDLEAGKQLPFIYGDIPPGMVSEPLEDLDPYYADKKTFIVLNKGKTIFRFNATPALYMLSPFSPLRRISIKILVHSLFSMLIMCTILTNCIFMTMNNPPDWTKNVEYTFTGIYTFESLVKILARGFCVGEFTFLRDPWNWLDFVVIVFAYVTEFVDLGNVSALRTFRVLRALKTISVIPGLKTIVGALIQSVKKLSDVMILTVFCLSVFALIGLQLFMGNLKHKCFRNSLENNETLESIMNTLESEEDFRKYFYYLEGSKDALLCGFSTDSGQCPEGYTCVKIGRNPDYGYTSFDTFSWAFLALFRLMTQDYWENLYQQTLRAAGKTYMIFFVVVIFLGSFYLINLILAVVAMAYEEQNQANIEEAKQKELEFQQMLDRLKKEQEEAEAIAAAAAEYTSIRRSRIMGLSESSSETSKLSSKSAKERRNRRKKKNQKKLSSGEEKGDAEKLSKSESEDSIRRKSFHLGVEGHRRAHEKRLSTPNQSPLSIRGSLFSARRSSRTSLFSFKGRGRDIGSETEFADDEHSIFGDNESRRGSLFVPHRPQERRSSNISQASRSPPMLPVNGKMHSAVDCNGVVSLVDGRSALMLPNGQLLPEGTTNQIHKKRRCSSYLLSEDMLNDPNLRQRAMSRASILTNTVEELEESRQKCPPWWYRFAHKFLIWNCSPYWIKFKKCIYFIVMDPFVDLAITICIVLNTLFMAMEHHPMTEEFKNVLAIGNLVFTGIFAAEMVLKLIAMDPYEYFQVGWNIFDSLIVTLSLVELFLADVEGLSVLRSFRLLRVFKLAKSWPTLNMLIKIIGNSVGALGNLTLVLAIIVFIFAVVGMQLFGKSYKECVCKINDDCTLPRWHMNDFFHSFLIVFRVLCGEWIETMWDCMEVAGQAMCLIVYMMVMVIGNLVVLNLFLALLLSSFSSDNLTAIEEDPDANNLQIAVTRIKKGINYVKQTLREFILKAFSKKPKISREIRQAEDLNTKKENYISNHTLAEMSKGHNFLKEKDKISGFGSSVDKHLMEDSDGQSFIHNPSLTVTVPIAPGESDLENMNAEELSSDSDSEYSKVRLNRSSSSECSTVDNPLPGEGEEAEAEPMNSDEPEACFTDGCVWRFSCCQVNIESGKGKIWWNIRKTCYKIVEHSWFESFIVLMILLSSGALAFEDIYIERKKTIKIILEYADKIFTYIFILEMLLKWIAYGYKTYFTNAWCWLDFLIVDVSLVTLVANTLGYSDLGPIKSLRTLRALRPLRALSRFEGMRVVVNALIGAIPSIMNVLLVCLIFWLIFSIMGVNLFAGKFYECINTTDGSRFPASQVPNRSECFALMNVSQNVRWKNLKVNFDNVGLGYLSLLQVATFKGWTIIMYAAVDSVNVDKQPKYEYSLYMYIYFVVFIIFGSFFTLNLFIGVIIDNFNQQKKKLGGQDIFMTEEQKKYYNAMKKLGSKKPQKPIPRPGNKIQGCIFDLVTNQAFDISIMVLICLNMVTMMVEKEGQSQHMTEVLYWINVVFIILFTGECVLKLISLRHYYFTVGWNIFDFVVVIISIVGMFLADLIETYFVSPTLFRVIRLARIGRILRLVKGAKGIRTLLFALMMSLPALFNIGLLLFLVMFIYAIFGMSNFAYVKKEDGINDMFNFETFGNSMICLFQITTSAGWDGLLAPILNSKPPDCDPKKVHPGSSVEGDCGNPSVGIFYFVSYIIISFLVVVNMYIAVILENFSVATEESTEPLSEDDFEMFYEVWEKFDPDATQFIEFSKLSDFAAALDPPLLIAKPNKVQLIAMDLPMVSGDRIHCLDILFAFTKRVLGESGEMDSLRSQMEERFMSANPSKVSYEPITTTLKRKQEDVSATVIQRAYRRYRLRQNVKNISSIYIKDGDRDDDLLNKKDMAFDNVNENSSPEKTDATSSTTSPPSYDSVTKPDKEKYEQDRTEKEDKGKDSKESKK
For electrophysiological recordings, the human Nav1.7 (XM_011511618) expressing CHO stable cell line (Anaxon, Switzerland) was cultured in Ham’s F12 medium supplemented with 10% FBS, 2 mM L-Glutamine and required selection antibiotic in 5% CO2 at 37°C.
For all Nav channel recordings, the intracellular solution contained (in mM): 50 CsCl, 60 CsF, 10 NaCl, 20 EGTA and 10 HEPES (pH 7.2, osmolarity 285 mOsm), and extracellular solution contained (in mM): 80 NaCl, 60 NMDG, 4 KCl, 2 CaCl2, 1 MgCl2, 5 glucose and 10 HEPES (pH 7.4, osmolarity 300 mOsm). Automated patch clamp (APC) recordings were performed by using SyncroPatch 768PE (Nanion Technologies, Germany), with PatchController384 V1.5.2 and DataController384 V1.5.0 software for pulse generation and data collection. Currents were sampled at 10 kHz and filtered with Bessel filter. Series resistance was compensated 80% with leak subtraction. Seal resistance (Rseal) was calculated using built-in protocols, and high-quality recoding data was obtained by auto filtering 3 quality control criteria: cell catching (>10 MΩ), seal resistance (>500 MΩ) and baseline current amplitude (>500 pA), and follow with manual inspection. The voltage protocol for all toxin pharmacological tests was set with holding membrane potential (Vm) at -120 mV, eliciting a 10 ms pulse to -10 mV every 2 s, recording 5 min for baseline and followed with examining compound effect for 25 min. Nav channel inhibition was calculated as the percentage of peak current (I) decrease from before compound application (I_Baseline) to the end of 25 minutes compound application (I_End) and both being normalized to the end of experiment full block current (I_Fullblock) using this following equation: Block%=[1−(Iend−Ifullblock/Ibaseline−Ifullblock)]×100%
All Nav channel inhibitions were presented as mean ± standard error of the mean from at least three independent trials.
In the case of `CC[C@H](C)[C@H](NC(=O)[C@H](CCC(N)=O)NC(=O)[C@H](Cc1ccc(O)cc1)NC(=O)[C@H](CCCCN)NC(=O)[C@@H]1CSSC[C@@H]2NC(=O)[C@H](CCC(N)=O)NC(=O)[C@H](CC(=O)O)NC(=O)[C@H](CC(N)=O)NC(=O)[C@H](CO)NC(=O)[C@@H]3CCCN3C(=O)[C@H](CC(N)=O)NC(=O)[C@@H]3CSSC[C@H](NC(=O)[C@H](C(C)C)NC(=O)[C@H](CC(C)C)NC(=O)[C@H](CCCCN)NC(=O)[C@H](CO)NC(=O)[C@H](CO)NC(=O)[C@H](CCCCN)NC(=O)[C@H](CSSC[C@H](NC(=O)[C@@H](N)CCC(=O)O)C(=O)N[C@@H](CC(C)C)C(=O)N[C@@H](CCC(=O)O)C(=O)N[C@@H](CCC4(C)N=N4)C(=O)N[C@@H](Cc4ccccc4)C(=O)N[C@@H](CCCCN)C(=O)N[C@@H](C)C(=O)N3)NC2=O)C(=O)N[C@@H](CO)C(=O)N[C@@H](CCCNC(=N)N)C(=O)N[C@@H](CCCCN)C(=O)N[C@@H]([C@@H](C)O)C(=O)N[C@@H](CCCNC(=N)N)C(=O)N[C@@H](Cc2c[nH]c3ccccc23)C(=O)N1)C(N)=O` [HTMp5], the concentration for half-maximal inhibition (IC50) (usually the concentration at which inhibition is half-maximal) came out at 41 nM.

As to `CC[C@H](C)[C@H](NC(=O)[C@H](CCC(N)=O)NC(=O)[C@H](Cc1ccc(O)cc1)NC(=O)[C@H](CCCCN)NC(=O)[C@@H]1CSSC[C@@H]2NC(=O)[C@H](CCC(N)=O)NC(=O)[C@H](CC(=O)O)NC(=O)[C@H](CC(N)=O)NC(=O)[C@H](CO)NC(=O)[C@@H]3CCCN3C(=O)[C@H](CC(N)=O)NC(=O)[C@@H]3CSSC[C@H](NC(=O)[C@H](C(C)C)NC(=O)[C@H](CC(C)C)NC(=O)[C@H](CCCCN)NC(=O)[C@H](CO)NC(=O)[C@H](CO)NC(=O)[C@H](CCCCN)NC(=O)[C@H](CSSC[C@H](NC(=O)[C@@H](N)CCC(=O)O)C(=O)N[C@@H](CC(C)C)C(=O)N[C@@H](CCC(=O)O)C(=O)N[C@@H]([C@@H](C)CC)C(=O)N[C@@H](Cc4ccccc4)C(=O)N[C@@H](CCC4(C)N=N4)C(=O)N[C@@H](C)C(=O)N3)NC2=O)C(=O)N[C@@H](CO)C(=O)N[C@@H](CCCNC(=N)N)C(=O)N[C@@H](CCCCN)C(=O)N[C@@H]([C@@H](C)O)C(=O)N[C@@H](CCCNC(=N)N)C(=O)N[C@@H](Cc2c[nH]c3ccccc23)C(=O)N1)C(N)=O` [HTMp7], the IC50 was found to be 40 nM.

As to `CC[C@H](C)[C@H](NC(=O)[C@H](CCC(N)=O)NC(=O)[C@H](Cc1ccc(O)cc1)NC(=O)[C@H](CCCCN)NC(=O)[C@@H]1CSSC[C@@H]2NC(=O)[C@H](CCC(N)=O)NC(=O)[C@H](CC(=O)O)NC(=O)[C@H](CC(N)=O)NC(=O)[C@H](CO)NC(=O)[C@@H]3CCCN3C(=O)[C@H](CC(N)=O)NC(=O)[C@@H]3CSSC[C@H](NC(=O)[C@H](C(C)C)NC(=O)[C@H](CC(C)C)NC(=O)[C@H](CCC4(C)N=N4)NC(=O)[C@H](CO)NC(=O)[C@H](CO)NC(=O)[C@H](CCCCN)NC(=O)[C@H](CSSC[C@H](NC(=O)[C@@H](N)CCC(=O)O)C(=O)N[C@@H](CC(C)C)C(=O)N[C@@H](CCC(=O)O)C(=O)N[C@@H]([C@@H](C)CC)C(=O)N[C@@H](Cc4ccccc4)C(=O)N[C@@H](CCCCN)C(=O)N[C@@H](C)C(=O)N3)NC2=O)C(=O)N[C@@H](CO)C(=O)N[C@@H](CCCNC(=N)N)C(=O)N[C@@H](CCCCN)C(=O)N[C@@H]([C@@H](C)O)C(=O)N[C@@H](CCCNC(=N)N)C(=O)N[C@@H](Cc2c[nH]c3ccccc23)C(=O)N1)C(N)=O` [HTMp21], the IC50 came to 35 nM.

For `CC[C@H](C)[C@H](NC(=O)[C@H](CCC(N)=O)NC(=O)[C@H](Cc1ccc(O)cc1)NC(=O)[C@H](CCCCN)NC(=O)[C@@H]1CSSC[C@@H]2NC(=O)[C@H](CCC(N)=O)NC(=O)[C@H](CC(=O)O)NC(=O)[C@H](CC(N)=O)NC(=O)[C@H](CO)NC(=O)[C@@H]3CCCN3C(=O)[C@H](CC(N)=O)NC(=O)[C@@H]3CSSC[C@H](NC(=O)[C@H](C(C)C)NC(=O)[C@H](CC(C)C)NC(=O)[C@H](CCCCN)NC(=O)[C@H](CO)NC(=O)[C@H](CO)NC(=O)[C@H](CCCCN)NC(=O)[C@H](CSSC[C@H](NC(=O)[C@@H](N)CCC(=O)O)C(=O)N[C@@H](CC(C)C)C(=O)N[C@@H](CCC(=O)O)C(=O)N[C@@H]([C@@H](C)CC)C(=O)N[C@@H](Cc4ccccc4)C(=O)N[C@@H](CCCCN)C(=O)N[C@@H](C)C(=O)N3)NC2=O)C(=O)N[C@@H](CO)C(=O)N[C@@H](CCCNC(=N)N)C(=O)N[C@@H](CCC2(C)N=N2)C(=O)N[C@@H]([C@@H](C)O)C(=O)N[C@@H](CCCNC(=N)N)C(=O)N[C@@H](Cc2c[nH]c3ccccc23)C(=O)N1)C(N)=O` [HTMp27], the IC50 was found to be 80 nM.

As for `CC[C@H](C)[C@H](NC(=O)[C@H](CCC(N)=O)NC(=O)[C@H](Cc1ccc(O)cc1)NC(=O)[C@H](CCCCN)NC(=O)[C@@H]1CSSC[C@@H]2NC(=O)[C@H](CCC(N)=O)NC(=O)[C@H](CC(=O)O)NC(=O)[C@H](CC(N)=O)NC(=O)[C@H](CO)NC(=O)[C@@H]3CCCN3C(=O)[C@H](CC(N)=O)NC(=O)[C@@H]3CSSC[C@H](NC(=O)[C@H](C(C)C)NC(=O)[C@H](CC(C)C)NC(=O)[C@H](CCCCN)NC(=O)[C@H](CO)NC(=O)[C@H](CO)NC(=O)[C@H](CCCCN)NC(=O)[C@H](CSSC[C@H](NC(=O)[C@@H](N)CCC(=O)O)C(=O)N[C@@H](CC(C)C)C(=O)N[C@@H](CCC(=O)O)C(=O)N[C@@H]([C@@H](C)CC)C(=O)N[C@@H](Cc4ccccc4)C(=O)N[C@@H](CCCCN)C(=O)N[C@@H](C)C(=O)N3)NC2=O)C(=O)N[C@@H](CO)C(=O)N[C@@H](CCCNC(=N)N)C(=O)N[C@@H](CCCCN)C(=O)N[C@@H]([C@@H](C)O)C(=O)N[C@@H](CCC2(C)N=N2)C(=O)N[C@@H](Cc2c[nH]c3ccccc23)C(=O)N1)C(N)=O` [HTMp29], the IC50 was found to be 68 nM.

Consider `CC[C@H](C)[C@@H]1NC(=O)[C@H](CCC(=O)O)NC(=O)[C@H](CC(C)C)NC(=O)[C@@H](NC(=O)[C@@H](N)CCC(=O)O)CSSC[C@@H]2NC(=O)[C@@H]3CSSC[C@@H](C(=O)N[C@@H](CCCCN)C(=O)N[C@@H](Cc4ccc(O)cc4)C(=O)N[C@@H](CCC(N)=O)C(=O)N[C@@H](CCC4(C)N=N4)C(N)=O)NC(=O)[C@H](Cc4c[nH]c5ccccc45)NC(=O)[C@H](CCCNC(=N)N)NC(=O)[C@H]([C@@H](C)O)NC(=O)[C@H](CCCCN)NC(=O)[C@H](CCCNC(=N)N)NC(=O)[C@H](CO)NC(=O)[C@H](CSSC[C@H](NC(=O)[C@H](C)NC(=O)[C@H](CCCCN)NC(=O)[C@H](Cc4ccccc4)NC1=O)C(=O)N[C@@H](CC(N)=O)C(=O)N1CCC[C@H]1C(=O)N[C@@H](CO)C(=O)N[C@@H](CC(N)=O)C(=O)N[C@@H](CC(=O)O)C(=O)N[C@@H](CCC(N)=O)C(=O)N3)NC(=O)[C@H](C(C)C)NC(=O)[C@H](CC(C)C)NC(=O)[C@H](CCCCN)NC(=O)[C@H](CO)NC(=O)[C@H](CO)NC(=O)[C@H](CCCCN)NC2=O` [HTMp35], for which the half-inhibitory concentration (IC50) stood at 13 nM.
